Data: PubChem BioAssay (NCI)
“And” between values parts separate entries of the source, which are not always exact repeats. Equal values may be shown once.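 The compound was tested at five concentrations on cells cultured in 96-well plates, with a 48-hour exposure period. GI50 marks 50% less growth. The concentration for full growth arrest is given as TGI.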 *1 amine or outer side, *2 acyl side, *3 side chain or, on linkers, in order; H or OH if unused. Where a SMILES comes first, the peptide text is derived from it. Bridges are numbered along the chain shown (N, C = ends). Roman numbers before positions name the chains, in order. [ ]: non-standard residue; d: D form. Actinocin(9to1) = Cc1c2oc3c(C)ccc(C(=O)[*:1])c3nc-2c(C(=O)[*:2])c(N)c1=O; NMeT = CN[CH](C(=O)O)[CH](C)O; Sar = CNCC(=O)O

Columns and labels:
Test in all cases: inhibition of tumour cell growth, NCI panel, 48 h
RPMI-8226 leukemia = system: RPMI-8226 leukemia
786-0 renal = system: 786-0 renal
NCI/ADR-RES ovarian = system: NCI/ADR-RES ovarian
KM12 colon = system: KM12 colon
UACC-257 melanoma = system: UACC-257 melanoma
HOP-62 NSCLC = system: HOP-62 NSCLC
SK-MEL-2 melanoma = system: SK-MEL-2 melanoma
OVCAR-5 ovarian = system: OVCAR-5 ovarian
SF-268 CNS = system: SF-268 CNS
T-47D breast = system: T-47D breast

Structure (SMILES)	GI50 (RPMI-8226 leukemia)	TGI (RPMI-8226 leukemia)	GI50 (786-0 renal)	TGI (786-0 renal)	GI50 (NCI/ADR-RES ovarian)	TGI (NCI/ADR-RES ovarian)	GI50 (KM12 colon)	TGI (KM12 colon)	GI50 (UACC-257 melanoma)	TGI (UACC-257 melanoma)	GI50 (HOP-62 NSCLC)	TGI (HOP-62 NSCLC)	GI50 (SK-MEL-2 melanoma)	TGI (SK-MEL-2 melanoma)	GI50 (OVCAR-5 ovarian)	TGI (OVCAR-5 ovarian)	GI50 (SF-268 CNS)	TGI (SF-268 CNS)	GI50 (T-47D breast)	TGI (T-47D breast)
COc1cccc(/C=C/[N+](=O)[O-])c1	1.78 µM	4.54 µM	1.9 µM	4.06 µM	26.2 µM	97.8 µM	2.54 µM	7.35 µM	3.19 µM	11.6 µM	12.8 µM	26.6 µM	17.4 µM	35.9 µM	12.3 µM	27.6 µM	5.64 µM	21.4 µM	2.51 µM	9.6 µM
C[C@]12CC[C@H](OC3OC(CO)C(O)C(O)C3O)C[C@H]1CC[C@@H]1[C@@H]2CC[C@]2(C)[C@@H](C3=CCOC3=O)CC[C@]12O (some centres undefined)		19.5 µM and > 100 µM	15.4 µM	> 100 µM	> 100 µM	50 µM and > 100 µM	> 100 µM	50 µM and > 100 µM	21.9 µM and > 100 µM	50 µM and > 100 µM		13.8 µM and > 100 µM and 50.3 µM	> 100 µM	50 µM and > 100 µM	> 100 µM	> 100 µM	> 100 µM and 27.1 µM	50 µM and > 100 µM	4.89 µM	> 100 µM
COc1ccc(/C(COc2ccc3c(=O)c(-c4ccccc4)coc3c2)=N\O)cc1	2.29 µM	> 54.2 µM	16.9 µM	38.5 µM	0.652 µM	35.5 µM	1.5 µM	40.4 µM	17.9 µM	> 60 µM	8.52 µM	33.7 µM	3.5 µM	23.7 µM		> 96.5 µM	6.36 µM	> 78.5 µM	6.96 µM	> 37.2 µM
C=C(CN1CCN(c2cccc(C(F)(F)F)n2)CC1)c1ccc(C(=O)Nc2ccccc2N)cc1	0.534 µM and 0.277 µM	4.19 µM and 1.33 µM	1.97 µM and 0.705 µM	70 µM and 14 µM	0.641 µM and 0.4 µM	> 100 µM	0.668 µM and 0.455 µM	> 100 µM		> 100 µM	2.21 µM and 0.877 µM	21.4 µM and 7.51 µM	5.65 µM and 0.851 µM	41.5 µM and > 58 µM	0.712 µM and 3.63 µM	> 100 µM	1.13 µM and 0.578 µM	31.2 µM and > 100 µM	3.01 µM and 0.616 µM	> 100 µM
O=c1ccs[nH]1		21.8 µM		21.4 µM		50.5 µM		62.1 µM		33.2 µM		38.6 µM		61.3 µM		36.3 µM		35.4 µM		55.5 µM
Cc1cc(O)cc2c1[C@]1(C)CCC3C(C)(C)CCC[C@]3(C)[C@H]1C2 (some centres undefined)	29.6 µM	74.7 µM	19.4 µM	34.3 µM	21.4 µM	39.8 µM	20 µM	35.3 µM	23.6 µM	41.3 µM	20.6 µM	35.5 µM	26.2 µM	52.7 µM	21.4 µM	37.2 µM	21 µM	39.4 µM	16.7 µM	43.3 µM
C=C(NC(=O)C(=C)NC(=O)c1csc(C2=NC3c4csc(n4)C4NC(=O)c5csc(n5)C(C(C)(O)C(C)O)NC(=O)C5CSC(=N5)C(=CC)NC(=O)C(C(C)O)NC(=O)c5csc(n5)C3(CC2)NC(=O)C(C)NC(=O)C(=C)NC(=O)C(C)NC(=O)C(C(C)CC)NC2C=Cc3c(C(C)O)cc(nc3C2O)C(=O)OC4C)n1)C(N)=O (centres undefined)	1.79 µM	19.7 µM	5.49 µM	19.7 µM	> 100 µM	> 100 µM	5.52 µM	27.5 µM	29.4 µM	> 100 µM	22.9 µM	> 100 µM	19 µM	> 100 µM	25.5 µM	79.9 µM	19.6 µM	> 100 µM	4.41 µM	80.7 µM
CC(C)C[C@H](NC(=O)Cn1ccc(NCc2ccccc2)cc1=O)B(O)O	0.304 µM		2.02 µM	> 40.1 µM	17.8 µM	> 100 µM	3.62 µM	17.1 µM	0.961 µM	4.73 µM	4.86 µM	29.5 µM	1.85 µM	14.8 µM	5.29 µM	> 100 µM	3.57 µM	27.5 µM	0.785 µM	12.4 µM
CNC(=S)NC(=O)c1c(Cl)n(C(=O)OC(C)(C)C)c2ccccc12	20.5 µM	68.9 µM	91.1 µM	> 100 µM	47.8 µM	> 100 µM	77.4 µM	> 100 µM	94.5 µM	> 100 µM	> 100 µM	> 100 µM	> 100 µM	> 100 µM	73.8 µM	> 100 µM	72.8 µM	> 100 µM	44.1 µM	> 100 µM
C=C1C(C2(C)C(OC(C)=O)CC(=O)OC(C)(COC(C)=O)C2CC(=O)OC)C(OC=O)C(OC(=O)C(O)C(C)CC)C2(C)C(c3ccoc3)CC(=O)C12O (centres undefined)		> 100 µM		> 100 µM		> 100 µM		> 100 µM		> 100 µM		> 100 µM		> 100 µM		> 100 µM		> 100 µM		> 100 µM
O=C(O)CCCSc1ccccc1		> 100 µM		> 100 µM		> 100 µM		> 100 µM		> 100 µM		> 100 µM		> 100 µM		> 100 µM		> 100 µM		> 100 µM
NC[C@H]1Nc2ccccc2[C@@H](O)C1O (some centres undefined)		> 100 µM		> 100 µM		> 100 µM		> 100 µM		> 100 µM		> 100 µM		> 100 µM		> 100 µM		> 100 µM		> 100 µM
CCCN(CCC)c1ccc(/C=C/c2ccc3cc(OCC)ccc3n2)cc1	6.29 µM	> 100 µM	> 100 µM	> 100 µM	> 100 µM	> 100 µM	> 100 µM	> 100 µM	> 100 µM	> 100 µM	> 100 µM	> 100 µM	> 100 µM	> 100 µM	> 100 µM	> 100 µM	> 100 µM	> 100 µM	15.9 µM	> 100 µM
O=C1CC(=O)N(C(=O)c2nn(-c3ccc(Cl)cc3)cc2O)N1	0.37 µM	11.1 µM	3.76 µM	> 64.5 µM	1.16 µM	> 100 µM	1.03 µM	> 100 µM	0.8 µM		0.5 µM	> 100 µM	> 100 µM	> 100 µM	4.17 µM	> 100 µM	0.461 µM	> 100 µM	0.431 µM	> 71.6 µM
C/C(=N\Nc1cc(C)c2ccccc2n1)c1ccccn1	0.112 µM	2.01 µM	0.135 µM	1.27 µM	0.0717 µM	1.42 µM	0.0789 µM	1.76 µM	0.0874 µM	0.452 µM	0.07 µM	1.37 µM	0.357 µM	11.1 µM	0.0706 µM	5.26 µM	0.0433 µM	1.71 µM	< 0.0208 µM	2.78 µM
C[C@@H](O)[C@H](NC(=O)N[C@@H](CC(N)=O)c1nc([C@@H](N)CO)no1)C(=O)O	> 100 µM	> 100 µM	> 100 µM	> 100 µM	> 100 µM	> 100 µM	> 100 µM	> 100 µM	> 100 µM	> 100 µM	> 100 µM	> 100 µM	> 100 µM	> 100 µM	> 100 µM	> 100 µM	> 100 µM	> 100 µM	> 100 µM	> 100 µM
Cc1c2oc3c(C)ccc(C(=O)NC4C(=O)NC(C(C)C)C(=O)N5CCCC5C(=O)N(C)CC(=O)N(C)C(C(C)O)C(=O)OC4C)c3nc-2c(C(=O)NC2C(=O)NC(C(C)C)C(=O)N3CCCC3C(=O)N(C)CC(=O)N(C)C(C(C)O)C(=O)OC2C)c(N)c1=O (centres undefined) (I: TVP[Sar][NMeT] / II: TVP[Sar][NMeT]; ester I:1-I:C, II:1-II:C; linker I:N-II:N via Actinocin(9to1); configuration not given here)		10.6 µM and > 1 µM	1.25 µM and 0.61 µM	> 100 µM	25.9 µM and > 1 µM	> 100 µM		> 100 µM	2.09 µM and > 1 µM	25.1 µM and > 1 µM		> 1 µM		3.97 µM and > 1 µM	4.29 µM and > 1 µM	> 43.4 µM		> 63 µM	2.67 µM and > 1 µM	> 100 µM
CCN(Cc1ccccc1)c1ccc(CO)c(Cl)c1	5.53 µM	44.7 µM	12 µM	39.3 µM	14.4 µM	56.8 µM	20.5 µM	63.3 µM	0.131 µM	0.316 µM	0.963 µM	79.5 µM	3.79 µM	24.7 µM	0.164 µM	0.593 µM	26.7 µM	> 70.6 µM	0.278 µM	2.25 µM
COc1ccc(-c2cc(-c3cccn3C)c(C#N)c(=O)[nH]2)cc1OC	> 100 µM	> 100 µM	> 100 µM	> 100 µM	> 100 µM	> 100 µM	> 100 µM	> 100 µM	> 100 µM	> 100 µM	> 100 µM	> 100 µM	> 100 µM	> 100 µM	> 100 µM	> 100 µM	> 100 µM	> 100 µM	34.7 µM	> 100 µM
